Reference: patent US12054466B2, “Compounds for the treatment of clostridium difficile infection” (University of Notre Dame du Lac, priority 2016, dated 2024)
Values after ≈ are worked out from the molar mass of the structure shown. Where two headings read alike, the source gives them in different places.

Columns and labels:
C. difficile [1] = settings: cited from earlier work
C. difficile ATCC43255 = test: MIC, broth microdilution; assay type: cell-based; settings: Clostridioides difficile
C. difficile [2] = test: MIC against C. difficile (strain not named; 14 strains overall); assay type: cell-based, Clostridium difficile; settings: for C. difficile MIC: strain not named
[3] = system: DNA, protein and peptidoglycan synthesis in C. difficile ATCC 43255; test: Macromolecular synthesis assays; assay type: cell-based; settings: N-acetyl-d-[6-3H]-glucosamine incorporation; ½ MIC; 120 min
Text: Macromolecular synthesis assays. The method of Mathur et al (J Antimicrob Chemother 2011, 66(5), 1087) was used with a few modifications. [2,8-^3H]-adenine (40 Ci/mmol), 1-[3,4,5-^3H(N)]-leucine (120 Ci/mmol), and N-acetyl-d-[6-^3H]-glucosamine (30 Ci/mmol) were purchased from Perkin Elmer (Waltham, MA). Ciproflaxin, linezolid, and oxacillin, were used as positive controls for DNA, protein, and peptidoglycan, respectively. Ciprofloxacin and oxacillin were purchased from Sigma-Aldrich (St. Louis, MO), linezolid was obtained from AmplaChem Inc. (Carmel, IN). […] Aliquots were taken every 30 min for radioactive counting and viability. Optimal incubation times were 60 min for DNA, 180 min for protein, and 120 min for peptidoglycan.

C. difficile ATCC43598 = test: MIC, broth microdilution; assay type: cell-based; settings: Clostridioides difficile, C. difficile ATCC43598
C. difficile BAA-1870 = test: MIC, broth microdilution; assay type: cell-based; settings: Clostridioides difficile, BAA1870, C. difficile BAA-1870 (NAP1, ribotype 27)
C. difficile BAA-1804 = test: MIC, broth microdilution; assay type: cell-based; settings: Clostridioides difficile, BAA1804, C. difficile BAA-1804
C. difficile BAA-1803 = test: MIC, broth microdilution; assay type: cell-based; settings: Clostridioides difficile, BAA1803, C. difficile BAA-1803 (NAP1, ribotype 027)
C. difficile BAA-1801 = test: MIC, broth microdilution; assay type: cell-based; settings: Clostridioides difficile, BAA1801, C. difficile BAA-1801 (nontoxigenic)
C. difficile BAA-1812 = test: MIC, broth microdilution; assay type: cell-based; settings: Clostridioides difficile, BAA1812, C. difficile BAA-1812
[4] = system: Bacteroides fragilis HM-709; test: MIC against common gut bacteria; assay type: cell-based; settings: HM709; Bacteroides fragilis HM-709; read-out: MIC
Bacteroides fragilis = test: MIC against common gut bacteria; assay type: cell-based; settings: read-out: MIC
Bacteroides ovatus = test: MIC against common gut bacteria; assay type: cell-based; settings: read-out: MIC
Bacteroides vulgatus = test: MIC against common gut bacteria; assay type: cell-based; settings: Phocaeicola vulgatus; Bacteroides vulgatus; read-out: MIC
Bacteroides eggerthii = test: MIC against common gut bacteria; assay type: cell-based; settings: read-out: MIC
Bacteroides caccae = test: MIC against common gut bacteria; assay type: cell-based; settings: read-out: MIC
[5] = system: Bifidobacterium longum HM-846; test: MIC against common gut bacteria; assay type: cell-based; settings: HM846; Bifidobacterium longum HM-846; read-out: MIC
[6] = system: Corynebacterium sp. HM-784; test: MIC against common gut bacteria; assay type: cell-based; settings: SP.HM784; Corynebacterium sp. HM-784; incubated aerobically; read-out: MIC
Procedure: Minimally-inhibitory concentrations. MICs for C. difficile strains and the common gut bacteria were determined using broth microdilution techniques as reported earlier using brucella broth supplemented with hemin and vitamin K or supplemented BHIS broth (Babakhani et al., J Antimicrob Chemother 2013, 68(3), 515). Lactobacillus MRS broth was used for lactobacillus strains. […] All incubations unless specified otherwise were carried out at 24 or 48 h at 37° C. in an anaerobic chamber (Whitley DG250 workstation, Microbiology International, Frederick, MD). Corynebacterium and lactobacillus species were incubated aerobically.

[7] = system: Fusobacterium nucleatum HM-992; test: MIC against common gut bacteria; assay type: cell-based; settings: HM992; Fusobacterium nucleatum HM-992; read-out: MIC
[8] = system: Lactobacillus reuteri HM-102; test: MIC against common gut bacteria; assay type: cell-based; settings: Limosilactobacillus reuteri, HM102; Lactobacillus reuteri HM-102; read-out: MIC
[9] = system: Lactobacillus gasseri HM-644; test: MIC against common gut bacteria; assay type: cell-based; settings: HM644; Lactobacillus gasseri HM-644; read-out: MIC
Veillonella sp. HM-49 = test: MIC against common gut bacteria; assay type: cell-based; settings: SP.HM49; Veillonella sp. HM-49; read-out: MIC
C. difficile infection = settings: patients treated for CDI; cited from earlier work
[10] = ATCC43255, FIG. 3 legend, C. difficile, read-out: MIC of positive controls of the macromolecular synthesis assays

For `CCCCCc1ccc(/C(C)=C/C(=O)N[C@H](Cc2c[nH]c3ccccc23)C(=O)N[C@H](CC(N)=O)C(=O)N[C@@H](CC(=O)O)C(=O)N[C@@H]2C(=O)NCC(=O)N[C@@H](CCCN)C(=O)N[C@@H](CC(=O)O)C(=O)N[C@H](C)C(=O)N[C@@H](CC(=O)O)C(=O)NCC(=O)N[C@H](CO)C(=O)N[C@@H]([C@H](C)CC(=O)O)C(=O)N[C@@H](CC(=O)c3ccccc3N)C(=O)O[C@@H]2C)cc1` [surotomycin], the “Inhibition of toxin production” value (C. difficile [1]; […]) is given as “nor inhibits toxin production”.

With `O=C(O)c1cn(C2CC2)c2cc(N3CCNCC3)c(F)cc2c1=O` [ciprofloxacin] the MIC (C. difficile ATCC43255; [10]) was 8 µg/mL.

`Oc1ccc(-c2nc(-c3ccc(OC4CCCC=C4Br)cc3)no2)cc1` (centres unmarked) [ix] showed a C. difficile MIC (C. difficile [2]) of 2 µg/mL.

`Oc1ccc(-c2nc(-c3ccc(OC4CC4)cc3)no2)cc1` [vii] gave a C. difficile MIC (C. difficile [2]) of 8 µg/mL.

In the case of `CC(=O)NC[C@H]1CN(c2ccc(N3CCOCC3)c(F)c2)C(=O)O1` [linezolid], the MIC (C. difficile ATCC43255; [10]) is reported as 2 µg/mL.

With `Oc1ccc(-c2nc(-c3ccc(OC4CCC=C4Br)cc3)no2)cc1` (centres unmarked) [xi] the C. difficile MIC (C. difficile [2]) was 2 µg/mL.

With `NCc1ccc(-c2nc(-c3ccc(Oc4ccc(C(F)(F)F)cc4)cc3)no2)cc1` [xxi] the C. difficile MIC (C. difficile [2]) was 4 µg/mL.

In the case of `Cc1onc(-c2ccccc2)c1C(=O)N[C@@H]1C(=O)N2[C@@H]1SC(C)(C)[C@@H]2C(=O)O` [oxacillin], the MIC (C. difficile ATCC43255; [10]) is reported as 8 µg/mL and the “Inhibition of peptidoglycan synthesis” value [3] is reported as 54.1±13%.

In the case of `Oc1ccc(-c2nc(-c3ccc(OC4CCCC4)cc3)no2)cc1` [xxii], the C. difficile MIC (C. difficile [2]) is reported as 2 µg/mL.

For `Cc1ncc([N+](=O)[O-])n1CCO` [metronidazole], the “MIC range in 14 C. difficile strains” value (C. difficile [2]; 14 C. difficile strains) was 0.1 to 0.25 µg/mL, the MIC (C. difficile ATCC43598; 24 h, read-out: MIC at 24 h) was 0.125 µg/mL (≈ 0.73 µM) and the MIC (C. difficile ATCC43598; 48 h, read-out: MIC at 48 h) was 0.125 µg/mL (≈ 0.73 µM). The MIC (C. difficile ATCC43255; C. difficile ATCC43255, 24 h, read-out: MIC at 24 h) was 0.01 µg/mL (≈ 0.0584 µM), the MIC (C. difficile ATCC43255; C. difficile ATCC43255, 48 h, read-out: MIC at 48 h) was 0.01 µg/mL (≈ 0.0584 µM) and the MIC (C. difficile BAA-1870; 24 h, read-out: MIC at 24 h) was 0.25 µg/mL (≈ 1.46 µM). The MIC (C. difficile BAA-1870; 48 h, read-out: MIC at 48 h) was 0.5 µg/mL (≈ 2.92 µM), the MIC (C. difficile BAA-1804; 24 h, read-out: MIC at 24 h) was 0.25 µg/mL (≈ 1.46 µM) and the MIC (C. difficile BAA-1804; 48 h, read-out: MIC at 48 h) was 0.25 µg/mL (≈ 1.46 µM). The MIC (C. difficile BAA-1803; 24 h, read-out: MIC at 24 h) was 0.25 µg/mL (≈ 1.46 µM), the MIC (C. difficile BAA-1803; 48 h, read-out: MIC at 48 h) was 0.5 µg/mL (≈ 2.92 µM) and the MIC (C. difficile BAA-1801; 24 h, read-out: MIC at 24 h) was 0.125 µg/mL (≈ 0.73 µM). For the same molecule, the MIC (C. difficile BAA-1801; 48 h, read-out: MIC at 48 h) was 0.125 µg/mL (≈ 0.73 µM), the MIC (C. difficile BAA-1812; 24 h, read-out: MIC at 24 h) was 0.25 µg/mL (≈ 1.46 µM) and the MIC (C. difficile BAA-1812; 48 h, read-out: MIC at 48 h) was 0.25 µg/mL (≈ 1.46 µM). For the same molecule, the MIC [4] was 0.5 µg/mL (≈ 2.92 µM), the MIC (Bacteroides fragilis) was 1 µg/mL (≈ 5.84 µM) and the MIC (Bacteroides ovatus) was 2 µg/mL (≈ 11.7 µM). For the same molecule, the MIC (Bacteroides vulgatus) was 2 µg/mL (≈ 11.7 µM), the MIC (Bacteroides eggerthii) was 2 µg/mL (≈ 11.7 µM) and the MIC (Bacteroides caccae) was 2 µg/mL (≈ 11.7 µM). For the same molecule, the MIC [5] was 0.5 µg/mL (≈ 2.92 µM), the MIC [6] was > 32 µg/mL and the MIC [7] was 2 µg/mL (≈ 11.7 µM). The MIC [8] was > 32 µg/mL, the MIC [9] was > 32 µg/mL and the MIC (Veillonella sp. HM-49) was 2 µg/mL (≈ 11.7 µM). For the same molecule, the “Patients with recurrence of the infection” value (C. difficile infection) was “About 25%”, the “Activity against C. difficile spores” value (C. difficile [1]; at 8× or 80× MIC) was “not active” and the “Inhibition of toxin production” value (C. difficile [1]; at 8×MIC) was “Neither vancomycin nor metronidazole inhibit toxin production”.

`Oc1ccc(-c2nc(-c3ccc(OC(F)(F)F)cc3)no2)cc1` [xvii] showed a C. difficile MIC (C. difficile [2]) of 4 µg/mL.
